These are literature values, as cited in PMC8329336, “The Role of Co-Signaling Molecules in Psoriasis and Their Implications for Targeted Treatment” (Frontiers in Pharmacology, 2021).

Like-named read-outs stand apart in the source and are kept apart here.

One series deals with human T cells. The arrangement: method as in Kuschei et al., 2011. Particulars: ref Kuschei et al., 2011.
The subject of series [1] is LFA-1. The note with it: led to withdrawal from the US market in 2009; ref Kuschei et al., 2011; Hsu and Tsai, 2020.
Series [2] deals with LFA-1. Further details: method as in Guttman-Yassky et al., 2008; Grönholm et al., 2016. The note with it: ref Guttman-Yassky et al., 2008; Grönholm et al., 2016.
Series [3] concerns p40 subunits of IL-23 and IL-12. Further details: method as in Lebwohl et al., 2015. Particulars: through binding to the p40 subunits of IL-23 and IL-12; ref Lebwohl et al., 2015.
The next series has as its system ICAM-1. The arrangement: method as in Wen et al., 2014; Xiong et al., 2015. Particulars: ref Wen et al., 2014; Xiong et al., 2015.
In a further series the test system is CD40. Particulars: for Efficacy (PASI scores of psoriasis) / Adverse event: patients with psoriasis, ref Anil Kumar et al. (2018); for Efficacy (PASI scores of psoriasis): Phase I; for Adverse event: limited number of patients.
Setting [4] is: Phase I, ref Papp et al. (2017).

On to “Efalizumab: humanized monoclonal antibody against LFA-1”, for which the “co-stimulatory molecules ICOS, OX40, CD27, and 4-1BB” value in the series on human T cells (human T cells) was “downregulating”. In the series on human T cells, the “proliferation and cytokine production of human T cells” value was “potently inhibiting”. The Adverse event entry in the series on LFA-1 [1] is “Progressive multifocal leukoencephalopathy”. Besides, in the series with LFA-1 [2], the “cell-surface molecules involved in T cell activation (CD3, TCR, CD4, CD8, CD28, integrin VLA-4)” value is recorded as “downregulate”.
“KHK4083: fully human monoclonal antibody against OX40”: in the series on OX40 (setting [4]), the Adverse event entry is “Mild or moderate chills, infusion site reactions” and the PASI scores entry is listed as “PASI scores↓”. In the series on OX40 (highest dose (10 mg/ kg), patients with mild to moderate plaque psoriasis, ref Papp et al., 2017), the efficacy entry is recorded as “good efficacy”. In addition, in the series on OX40 (phase I study, ref Papp et al., 2017), the safety and tolerability entry was “safe and well tolerated”.
Turning to “Anti-p40: approved drug for psoriasis treatment, binds to the p40 subunits of IL-23 and IL-12”, in series [3], the “IL-23A-induced IL-17A production” value is given as “inhibit”.
In the case of `CC1(C)[C@@H](O[C@H]2O[C@H](C(=O)O)[C@@H](O)[C@H](O)[C@H]2O[C@@H]2O[C@H](C(=O)O)[C@@H](O)[C@H](O)[C@H]2O)CC[C@]2(C)[C@H]3C(=O)C=C4[C@@H]5C[C@@](C)(C(=O)O)CC[C@]5(C)CC[C@@]4(C)[C@]3(C)CC[C@@H]12` [glycyrrhizin], in the series on ICAM-1, the effect on psoriasis entry is on record as “improve” and the “expression of ICAM-1” value is listed as “inhibiting”.
In the case of `CC(C)=CCC[C@]1(C)C=Cc2c(O)c3c(c(CC=C(C)C)c2O1)O[C@]12C(=C[C@@H]4C[C@H]1C(C)(C)O[C@@]2(C/C=C(/C)C(=O)O)C4=O)C3=O` [gambogic acid], in the series on ICAM-1, the effect on psoriasis result was “improve” and the “expression of ICAM-1” value is “inhibiting”.

B1: Bleselumab: fully human IgG4 monoclonal antibody (mAb) that targets CD40 (antibody, chains of the INN, looked up, V domains shown)
VH: QLQLQESGPGLLKPSETLSLTCTVSGGSISSPGYYGGWIRQPPGKGLEWIGSIYKSGSTYHNPSLKSRVTISVDTSKNQFSLKLSSVTAADTAVYYCTRPVVRYFGWFDPWGQGTLVTVSS
VL: AIQLTQSPSSLSASVGDRVTITCRASQGISSALAWYQQKPGKAPKLLIYDASNLESGVPSRFSGSGSGTDFTLTISSLQPEDFATYYCQQFNSYPTFGQGTKVEIK
Regarding B1, in the series with CD40 (as compared to CD40L-specific mAbs, ref Anil Kumar et al., 2018), the clinically malignant events was “no clinically malignant events”. In the series with CD40, the “Efficacy (PASI scores of psoriasis)” value is given as “Ineffective” and the Adverse event entry is recorded as “Transient elevations of liver transaminase enzymes”. In the series with CD40 (listed as bleselumab), the “Efficacy (PASI scores of psoriasis)” value was “did not improve” and the Adverse event result is listed as “transient elevations in liver transaminase enzymes”.
